Assay results taken from patent US20190099468A1, “METHOD TO PROTECT AND SEAL THE OCULAR SURFACE” (UNIVERSITY OF SOUTHERN CALIFORNIA, priority 2017, published 2019).
Structures can show the parent of a compound that is named as a salt.

Columns and labels:
[1] = tested on: HCLE stratified cultures; assay: Vital dye staining assay (fluorescein, rose bengal), oxidative stress, stratified and differentiated cells; type: cell-based, human; conditions: 10 mM tBHP; Genistein 200 uM, Chlorpromazine 8 ug/mL, Dynasore 40 uM, Dyngo-4a 15 uM; FIG. 3B-D
From the text: (§1) The purpose of this study was to investigate mechanisms of dye uptake relevant to ocular surface disease. We hypothesized that stimulation of plasma membrane remodeling by sublethal cell damage would result in vital dye uptake into endocytic repair vesicles. Oxidative stress has been implicated in ocular surface damage due to dry eye and many other ocular surface disorders, thus we chose this as the damaging stress for our study. An aqueous stock solution of tert-butyl hydroperoxide (tBHP) was diluted into the medium of human cell cultures or mouse eye organ cultures as we have previously described. The final dilution of tBHP used for cell culture experiments was 3 mM or 10 mM (as indicated in the individual experimental details). A final dilution of 10 mM tBHP was used for mouse eye organ culture experiments. These optimal concentrations were determined empirically in dose-response assessments as causing a high level of vital dye staining without killing cells. As soon as tBHP was added, all cultures were returned to the cell culture incubator under 5% CO2 atmosphere. Stressed cultures were compared to unstressed controls incubated similarly for the same time period. Cells were incubated for 2 to 3 hours and mouse eyes were incubated for 2.5 hours before endpoint determination.
(§2) To learn whether endocytosis was involved in dye uptake, the process was blocked by treating cells or eyes with endocytic inhibitors. Chlorpromazine hydrochloride (MP Biologicals, Solon, Ohio), an inhibitor of clathrin-mediated endocytosis, was used at a final dilution of 8 ug/mL. Genistein (Sigma-Aldrich, St Louis, Mo.), an inhibitor of caveolin-mediated endocytosis, was used at 200 uM final dilution. […] All inhibitors were dissolved in DMSO, which served as the treatment vehicle. The same volume of DMSO was added to matching untreated cultures as a vehicle control.
(§3) A telomerase-immortalized line of human corneal limbal epithelial (HCLE) cells was used for all experiments employing cell culture. […] Stratification was routinely evaluated using phase contrast microscopy; differentiation leading to glycocalyx barrier function was evaluated using the rose bengal penetration assay. […]
(§4) Vital dye staining of cells in culture was performed using sodium fluorescein (Sigma-Aldrich). […] Dye uptake was evaluated qualitatively by imaging. Images (excitation/emission=488/510 nm) were taken immediately after washing, so that staining could be evaluated before dye diffused. Fluorescein uptake by cultured cells was quantified using a plate reader and depicted in graphs as relative fluorescence units (RFU). Rose bengal uptake by cultured cells or eyes was quantified using a modification of a previously described method. […]

[2] = tested on: HCLE monolayer cell cultures; assay: Vital dye staining assay (fluorescein), oxidative stress, monolayer cells; type: cell-based, human; conditions: 3 mM tBHP, 2 hours; Genistein 200 uM, Chlorpromazine 8 ug/mL, Dynasore 40 uM; FIG. 2B
From the text: as §1, with “Cells were incubated for 2 to 3 hours and mouse eyes were incubated for 2.5 hours before endpoint determination.” left out
as §3, §4

[3] = tested on: ocular surface of ex vivo mouse eyes; assay: Vital dye staining assay, mouse eye organ culture under oxidative stress; conditions: for dye uptake at the ocular surface, post-treatment: 10 mM tBHP first, FIG. 4B; for vital dye uptake once the damage was done: used after stress was applied
From the text: as §1, §2
The University of Southern California's Institutional Animal Care and Use Committee approved the research protocol number 11412 for use of mice in this study. Research was conducted in adherence with the Association for Research in Vision and Ophthalmology (ARVO) Statement for the Use of Animals in Ophthalmic and Visual Research. Wild type C57B1/6J mice, 6-8 weeks of age, were purchased from Jackson Labs (Bar Harbor, Me.). Prior to use in an experiment, mice were housed in a pathogen-free barrier facility and kept at […], relative humidity 60%±10%, with alternating 12-hour light/dark cycles. To obtain eyes for organ culture, euthanasia was performed using compressed CO2 gas, according to the American Veterinary Medical Association Guidelines for the Euthanasia of Animals: 2013 Edition. […]
Vital dye staining of cells in culture was performed using sodium fluorescein (Sigma-Aldrich). […] Dye uptake was evaluated qualitatively by imaging. Images (excitation/emission=488/510 nm) were taken immediately after washing, so that staining could be evaluated before dye diffused. Fluorescein uptake by cultured cells was quantified using a plate reader and depicted in graphs as relative fluorescence units (RFU). Rose bengal uptake by cultured cells or eyes was quantified using a modification of a previously described method. After imaging, the stained cells or eyes were incubated in 100 uL of DMSO at room temperature for 1 hour, and the solution was recovered into the wells of a 96 well plate to read in a plate reader at 562 nm.

[4] = tested on: HCLE monolayer cultures; assay: MTT/WST-1 metabolic assays for cytotoxicity; type: cell-based, human; conditions: 10 mM tBHP, 2 hours; Dynasore 40 uM at the same time; FIG. 5A
From the text: as §1, with “Stressed cultures were compared to unstressed controls incubated similarly for the same time period. Cells were incubated for 2 to 3 hours and mouse eyes were incubated for 2.5 hours before endpoint determination.” left out
as §3

[5] = tested on: cardiomyocyte; conditions: references [56-58]; cited from earlier work
[6] = tested on: MPS-treated monolayer cells; conditions: publication [61]; cited from earlier work
[7] = tested on: HCLE monolayer cultures; assay: Trypan blue exclusion assay; type: cell-based, human; conditions: 10 mM tBHP, 3 hours; Dynasore 40 uM at the same time; FIG. 5B
From the text: (§5) The purpose of this study was to investigate mechanisms of dye uptake relevant to ocular surface disease. We hypothesized that stimulation of plasma membrane remodeling by sublethal cell damage would result in vital dye uptake into endocytic repair vesicles. Oxidative stress has been implicated in ocular surface damage due to dry eye and many other ocular surface disorders, thus we chose this as the damaging stress for our study. An aqueous stock solution of tert-butyl hydroperoxide (tBHP) was diluted into the medium of human cell cultures or mouse eye organ cultures as we have previously described. […] These optimal concentrations were determined empirically in dose-response assessments as causing a high level of vital dye staining without killing cells. […]
as §3
Cells were stained with filtered 0.4% trypan blue dye (Thermo Fisher Scientific) for 4 minutes following 3 washes with PBS. The extent of staining was measured qualitatively by imaging under white light, and quantitatively using a plate reader at 590 nm.

[8] = tested on: LGALS3; assay: Western blotting of LGALS3 in cell culture medium; type: cell-based, human; conditions: stratified cultures, 3 mM tBHP, 2 hours; Dynasore 40 uM; FIG. 6B
From the text: as §1, with “Stressed cultures were compared to unstressed controls incubated similarly for the same time period. Cells were incubated for 2 to 3 hours and mouse eyes were incubated for 2.5 hours before endpoint determination.” left out
as §3

[9] = tested on: HCLE monolayer cultures; assay: Endocytosis assay: uptake of Alexa Fluor 568-conjugated TF under oxidative stress; type: cell-based, human; conditions: 3 mM tBHP; co-treatment with Dynasore 40 uM; FIG. 2A
From the text: as §5, §3
Endocytosis was quantified by monitoring cell uptake of human Alexa Fluor 568-conjugated TF (serum transferrin; Thermo Fisher Scientific, Waltham, Mass.). […] Cells were then imaged with a Keyence BZ-X700 fluorescence microscope (excitation/emission=532/588 nm). Alexa Fluor 568-conjugated TF uptake was quantified by image J analysis.

[10] = tested on: HCLE stratified cultures; assay: Lectin binding (fluorescein-conjugated jacalin); type: cell-based, human; conditions: 3 mM tBHP, 2 hours; Dynasore 40 uM; FIG. 6A
From the text: as §1, with “Stressed cultures were compared to unstressed controls incubated similarly for the same time period. Cells were incubated for 2 to 3 hours and mouse eyes were incubated for 2.5 hours before endpoint determination.” left out
as §3

[11] = tested on: ocular surface barrier; conditions: mouse model, desiccating stress; cited from earlier work

Compound: O=c1c(-c2ccc(O)cc2)coc2cc(O)cc(O)c12 [Genistein]
- oxidative stress-stimulated vital dye uptake in stratified and differentiated cell cultures [1]: no effect on vital dye uptake
- stress-stimulated fluorescein dye uptake [2]: blocked

Compound: O=C(N/N=C/c1ccc(O)c(O)c1)c1cc2ccccc2cc1O [Dynasore]
- dye uptake at the ocular surface, post-treatment ([3]; then Dynasore 40 uM for 15 or 30 minutes): dye uptake was not reduced
- dye uptake at the ocular surface, post-treatment ([3]; then Dynasore 80 uM for 15 or 30 minutes): dye uptake was not reduced
- dye uptake at the ocular surface, co-treatment ([3]; 10 mM tBHP, Dynasore 40 uM at the same time as stress, FIG. 4A): dye uptake was prevented
- vital dye uptake once the damage was done [3]: no effect on vital dye uptake
- oxidative stress-stimulated vital dye uptake in stratified and differentiated cell cultures [1]: very effective inhibitor
- protection against oxidative stress-induced increase of MTT/WST-1 absorbance [4]: protective, in particular for the WST-1 assay
- cardiomyocyte apoptosis following oxidative stress [5]: protects cardiomyocyte against entering apoptosis following oxidative stress
- uptake of fluorescein in MPS-treated cells [6]: inhibited uptake of fluorescein
- protection against oxidative stress-induced trypan blue staining [7]: remarkably protective, essentially eliminating trypan blue staining
- oxidative stress-caused increase in LGALS3 in the cell culture medium [8]: inhibited this increase
- stress-stimulated fluorescein dye uptake [2]: also blocked
- stress-stimulated TF uptake (endocytosis) [9]: blocked stress-stimulated TF uptake
- jacalin staining of cell surface mucin-type glycoconjugates [10]: no effect

Compound: CLU: homeostatic protein clusterin, prominent at fluid-tissue interfaces; SEQ ID NO: 1 is the human isoform 2 preproprotein
- ocular surface barrier disruption [11]: prevents and ameliorates ocular surface barrier disruption

Compound: O=C(N/N=C/c1cc(O)c(O)cc1O)c1cc2ccccc2cc1O [Dyngo-4a]
- vital dye uptake once the damage was done [3]: no effect on vital dye uptake
- oxidative stress-stimulated vital dye uptake in stratified and differentiated cell cultures [1]: very effective inhibitor of vital dye uptake

Compound: CN(C)CCCN1c2ccccc2Sc2ccc(Cl)cc21 [Chlorpromazine, Chlorpromazine hydrochloride]
- oxidative stress-stimulated vital dye uptake in stratified and differentiated cell cultures [1]: no effect on vital dye uptake
- stress-stimulated fluorescein dye uptake [2]: blocked
